Converted amounts (≈) assume the structure as drawn. Numbered stars: 1 amine (or outer) side, 2 acyl side, 3 side chain; on linkers, the order of the positions; unused ones are H or OH. Square brackets hold non-standard residues; d marks the D form. Peptide text beside a SMILES is read from it. dAla(ψthiazole) = C[C@@H](N[*:1])c1nc(C(=O)[*:2])cs1; Trp(4-OMe) = COc1cccc2[nH]cc(C[C@H](N)C(=O)O)c12; Dha = C=C(N)C(=O)O; Sar = CNCC(=O)O
Key:
[1] = system: HeLa cells; assay: Apoptosis in HeLa cells with p27^kip1 specific siRNA; type: cell-based, human; conditions: 24 or 48 hours
Source text: Next the inventors tested whether the stabilization of p27 was indeed required for the apoptosis inducing function of Argyrin A or was merely a consequence of proteasome inhibition. For this the inventors treated immortalized mouse embryonic fibroblasts from p27^kip1 wildtype or knockout mice with Argyrin A or the proteasome inhibitor bortezomib and assayed cell cycle distribution and apoptosis by flow cytometry. […] These differences in sensitivity in response to Argyrin A treatment were not due to differences in the accumulation of other proteasomal substrates in p27 wildtype and knockout cells as p53 and p21 levels increased in both cell lines in response to Argyrin A (FIG. 6B). To extend this observation to human cancer cells the inventors reduced the levels of p27^kip1 in HeLa cells using p27^kip1 specific siRNA.
The results shown are the average numbers for six independent experiments. b+d) Wildtype (b) and p27 knockout (d) MEF were treated with Argyrin A or transfected with siRNAs specific for the β1, β2 or β5 subunit of the proteasome for 24 hours. The graphs show the remaining catalytic activity of the different proteasome subunits after Argyrin A or siRNA treatment compared to an untreated control (n=3). […]

[2] = system: 20S proteasome; assay: 20S proteasome activity in peripheral blood cells after i.p. injection; type: in vivo, mouse; conditions: peripheral blood lymphocytes
Experimental: The inventors therefore tested if Argyrin A induced p27^kip1 stabilization would be beneficial in the treatment of human colon cancer cell derived tumour xenografts. To analyze this the inventors first tested if Argyrin A was active after application in vivo. After intraperitoneal injection of Argyrin A, 20S proteasome was isolated from peripheral blood lymphocytes at different time points after injection. […] Based on this finding the inventors treated tumour bearing mice with 0.15 mg Argyrin per kilogram bodyweight injected intraperitoneally every three days.
At the indicated timepoints 20S proteasome was isolated from peripheral blood cells and the activity of the different proteasome subunits was determined as described (FIG. 1d). b) SW480 colon carcinoma cell lines mixed with matrigel were injected under the skin of nu/nu mice to establish xenotransplant tumours. Treatment with Argyrin A or bortezomib was started when these tumours reached a volume of 200 mm^3. […] The activity of the respective proteasome subunits was determined as described previously (FIG. 1d). e) Determination of the number of p27^kip1 positive cells in tumour tissue after Argyrin A treatment. […] At least 200 cells were counted on five independent sections to quantitate the number of apoptotic cells. […]
Proteasome assays using proteasome purified from cells or tissues were carried out in a 100 μL reaction volume containing 20 μg proteasome extract, 50 mmol/L EDTA and 60 μmol/L fluorogenic substrate (chymotrypsin-like (CT-L), trypsin-like (T-L) or caspase-like (C-L)) in ATP/DTT lysis buffer at 37° C. […] The rate of cleavage of fluorogenic peptide substrates was determined by monitoring the fluorescence of released amonomethylcoumarin using a Victor 1420 Multilabel counter (Wallac) at an excitation wavelength of 395 nm and emission wavelength of 460 nm over a period of 60 min.

[3] = system: H15 (cervix carcinoma); assay: MIC (visual), serial dilution, H15; type: cell-based, human; conditions: minimal concentration of a serial dilution exhibiting a visual effect
Source text: (§1) The following table summarizes the effects of argyrin-derivatives A to H on two cancer cell lines, H15 (cervix carcinoma) and SW-480 (colon cancer). In order to test the efficacy, a p27-GFP-clone was used.

[4] = system: p27-GFP (clone H15GFP-p27, HeLa-cell line; cervix-carcinoma); assay: GFP-fluorescence per FACS in clone H15GFP-p27; type: cell-based, human; conditions: GFP-fluorescence per FACS after 24 h incubation, 500 ng/ml
Source text: Human p27cDNA (in plasmid vector CS2+) was digested with EcoR1 and BamH1, and the resulting fragment was ligated after gel purification into the vector pEGFP-N1 (Clontech) that was cut with the same restriction enzymes. Thus, a […] fusion with the GFP as contained in the pEGFP-vector was generated. The plasmid was then transfected into Hela cells, and, following selection of the cells with kanamycin, cellular clones were isolated which had the plasmid integrated stably into their chromosome. The expression of the p27EGFP proteins was confirmed using Western blots and immune precipitations for both p27 and GFP.
as §1

[5] = system: p27^kip1-GFP fusion protein in HeLa cells; assay: High throughput screen for p27 stabilizing substances; type: cell-based, human; conditions: 70 nM
Source text: To identify substances which lead to an increase in the expression levels of p27^kip1 the inventors generated a cell based high throughput assay system (see materials and methods for details). […] As shown by flow cytometry, Argyrin A exerted two different cellular phenotypes at ranges of IC50. […] The apoptosis inducing activity of Argyrin A was confirmed by measuring DNA fragmentation using a histone fragmentation ELISA (FIG. 5B).
A cellular high throughput screen for p27 stabilizing compounds was established by stably introducing a DNA plasmid (EGFP-N1, Clontech) which allows the expression of p27^kip1-GFP fusion protein in HeLa cells. p27-GFP expressing cells were selected with neomycin and several independent clones were subcultured. HeLa p27-GFP cells were seeded in 384 well plates (Corning) and incubated with a set of highly diverse natural products (part of the Helmholtz Center for Infection Research myxobacterial metabolite collection) at a concentration of 70 nM. GFP emission was determined by fluorometric measurements using a Victor 1420 multilabel counter (Perkin Elmer) at 3 h, 24 h, 48 h and 60 h after the start of treatment. The proteasome inhibitor MG132 was used as a positive control.

In the case of `C=C1NC(=O)[C@@H](C)NC(=O)CNC(=O)[C@H](Cc2c[nH]c3cccc(OC)c23)NC(=O)[C@H](Cc2c[nH]c3ccccc23)NC(=O)c2csc(n2)[C@@H](C)NC(=O)CN(C)C1=O` [Argyrin A] (cyclo(W[Trp(4-OMe)]G[dA][Dha][Sar][dAla(ψthiazole)])), the “apoptosis inducing function in HeLa cells treated with p27siRNA” value [1] is reported as “completely blocked”, the “time at which all activities returned to base-line levels post injection” value ([2]; i.p.) is reported as 72 h and the “time of maximum inhibitory activity post injection” value ([2]; i.p.) is reported as 48 h. For the same compound, the “proteasome activities after i.p. application” value ([2]; mice) was “inhibited all proteasome activities”, the “MIC (visual) H15” value [3] was 4 µg/mL (≈ 4.85 µM) and the “Mean of FSC-H (Log) H15 p27-GFP-clone” value [4] was 8.52. For the same compound, the “increase in fluorescence (p27-GFP)” value [5] was “strongest increase in fluorescence”.

From patent US8217071B2, “Use of inhibitors of the degradation of p27, in particular Argyrin and derivatives thereof, for the treatment of proliferative diseases” (Helmholtz Zentrum für Infektionsforschung GmbH, priority 2007, dated 2012)
